Experimental data published in US9291621B2, “AGER-peptides and use thereof” (AbbVie Deutschland GmbH & Co. KG, priority 2005, dated 2016).

How the values were obtained:
[1] = biological target: T1, sRAGE-6×HIS (amino acids 23-352, NP_001127) (Homo sapiens, UniProt Q15109); experiment: AlphaScreen measurement of peptide binding to sRAGE; conditions: for binding to the receptor (AlphaScreen): biotinylated control peptides 0, 10, 30, 100, 300 nM
T1 construct: fusion protein sRAGE-6×HIS (amino acids 23-352, NP_001127); made in house
T1 sequence (Q15109 with tags, fused parts or gaps): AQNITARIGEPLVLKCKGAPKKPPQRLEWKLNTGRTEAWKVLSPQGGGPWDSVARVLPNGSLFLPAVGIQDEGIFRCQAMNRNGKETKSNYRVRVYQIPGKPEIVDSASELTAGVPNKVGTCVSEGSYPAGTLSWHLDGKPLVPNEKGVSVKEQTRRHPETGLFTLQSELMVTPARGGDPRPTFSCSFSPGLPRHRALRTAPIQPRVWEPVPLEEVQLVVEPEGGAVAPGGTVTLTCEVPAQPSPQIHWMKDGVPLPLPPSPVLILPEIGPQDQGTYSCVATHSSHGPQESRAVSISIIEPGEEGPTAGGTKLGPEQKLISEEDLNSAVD
Description: The entire homogeneous assay was carried out in 25 mM HEPES, 100 mM NaCl of pH 7.4 and 0.1% BSA in a volume of 20 μl.
The individual components were brought together in a defined time sequence. […] The various amounts of peptide were then added in order, after a further 30 minutes, to add the donor beads. After a further 60 minutes, the fluorescence was measured in the AlphaQuest instrument from Perkin-Elmer with a time lag of one second. Each measured point was determined as triplicate. The analysis and graphical workup of the results took place with the GraphPrism 4.0 software package.
The binding to the RAGE receptor was measured by employing the AlphaScreen™ System (order number: 6760610M) from Perkin Elmer (Shelton, Conn., USA).
The assay was carried out by the manufacturer's protocol in 25 mM HEPES, 100 mM NaCl of pH 7.4 and 0.1% BSA in a volume of 20 μl. The mixture comprised 2.5 ng/μl of the fusion protein sRAGE-6×HIS (amino acids 23-352, NP_001127), 20 ng/μl anti-HIS acceptor beads, 20 ng/μl streptavidin donor beads and the biotinylated peptides in concentrations of 0, 10, 30, 100, and 300 nM. The peptides, with the exception of AR 1-42 oligomers, were heated at 50° C. for 10 minutes immediately before the test in order to loosen possible aggregations.
The individual components were brought together in a defined time sequence. […] The various amounts of peptide were then added in order, after a further 30 minutes, to add the donor beads. After a further 60 minutes, the fluorescence was measured in the AlphaQuest instrument from Perkin-Elmer with a time lag of one second. Each measured point was determined as triplicate. The evaluation and graphical workup of the results took place with the GraphPrism 4.0 software package.

[2] = test system: hippocampal sections (CA1 region); experiment: Excitatory synaptic transmission and long-term potentiation in hippocampal sections; type: cell-based, male Wistar rats; conditions: for effect on short-term and long-term potentiation: theta burst stimulation, p=0.016 (NtermR31), p=0.794 (scraNtermR31), repeated measures ANOVA
Description: 400 μm-thick transverse hippocampal sections from 7-8-week-old male Wistar rats (Harlan Winkelmann, Bochum, Germany) were prepared using a tissue chopper and equilibrated for at least 1 hour at 33° C. in Carbogen-gassed artificial cerebrospinal fluid (aCSF) of the following composition: NaCl 124 mM; KCl 4.9 mM; MgSO4 1.3 mM; CaCl2 2.5 mM; KH2PO4 1.2 mM; NaHCO3 25.6 mM; glucose 10 mM; pH 7.4. Recordings were made from the section immersed in Carbogen-gassed artificial cerebrospinal fluid (aCSF) of the same composition.
Stimulation of the Schaffer collaterals took place in the stratum radiatum using a monopolar stimulating electrode with biphasic pulse (voltage range 1-5 V). Excitatory post-synaptic potentials (EPSPs) were recorded in the stratum radiatum using aCSF-filled glass electrodes against a chlorinated silver reference electrode (bath). These reflect in particular the strength of the glutamatergic synaptic transmission.
The values were determined from the gradient of the field EPSPs recorded every 5 min for a period of 120 minutes before and 120 minutes after LTP induction. LTP was induced by so-called theta burst stimulation (4×2 pulses at an interval of 200 ms with a double-pulse interval of 10 ms). […]

[3] = biological target: sRAGE/Aβ globulomer interaction (Homo sapiens, UniProt P05067); conditions: for inhibition of Aβ oligomer binding to sRAGE: increasing peptide concentrations, Aβ 1/5 biotin globulomer 800 nM
Sequence of sRAGE/Aβ globulomer interaction (P05067 672-713 limits assumed): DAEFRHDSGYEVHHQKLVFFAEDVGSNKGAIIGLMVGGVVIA
Description: The HTRF donor and acceptor components, Anti6HIS europium cryptate (CIS Bio catalogue number: 61HISKLA; 500 wells/13 μg) and streptavidin XL-665 (CIS Bio catalogue number: 61HISAXLA, 500 wells/250 μg) were each dissolved in 250 μl of dd H2O, Starting from these stock solutions, 1:50 working dilutions were prepared with a final concentration of 7.4 nM Anti6His cryptates and 121.2 nM streptavidin XL-665 in PBS, 0.1% BSA, pH 7.4.
Working solutions of peptides 6 and 7 were prepared with concentrations of 200 μM, 100 μM, 50 μM, 25 μM, 12.5 μM, 6.25 μM, 3.125 μM, 1.56 μM and 0.78 μM.
To carry out the tests, initially 4 μl of the working solutions of each of peptides 6 and 7, and of a buffer control, were mixed with 4 μl of a 4 μM stock solution of the Aβ 1/5 biotin globulomer (final assay concentration 800 nM) and incubated at room temperature for one hour. The A beta 1/5 biotin globulomer concentration indicated here is based on the Aβ 1-42 monomers which were used to prepare the globulomers.
2 μl portions of the 7.4 nM Anti6His cryptates and of the 121.2 nM streptavidin solution described above were added in order then to incubate this mixture, now at 4° C., for a further two hours. After addition of 4 μl of a 2M KF stock solution, the complete mixture was measured in a BMG Pherastar fluorescence measuring instrument (BMG Labtech GmbH, Offenburg, Germany) in HTRF mode. Separate measurements without peptide were carried out for the max-signal curve. For the background curve, measurements were used with in each case only the AntiGHIS cryptates and strepavidin XL solutions. The calculated % DeltaF values were transferred into GraphPad Prism 4 (GraphPad Software, San Diego, USA) and evaluated. The concentrations indicated in the graphs are based on the final concentration of the complete 20 μl mixture.

[4] = test system: HEK293 RhoA/NgR/p75 cells; experiment: Functional actin cytoskeletal rearrangement (ACR) assay; type: cell-based, human; conditions: preincubation 0.2, 1, 5 μM; stimulation with AP-Nogo-66 (9.6 μg/ml)
Description: 1×10^4 cells were […] into microtiter plates with 96 wells two days before the stimulation. The cells were stimulated with a suitable reagent (e.g. LPA or AP-Nogo-66) in culture medium (RPMI-Glutamax) comprising 5% FCS. After a stimulation period of 5 to 10 minutes, the activation was stopped with cold PBS. The cells were fixed with 3-4% strength paraformaldehyde solution, permeabilized with PBS comprising 0.2% Triton X-100, and incubated with phalloidin Alexa 568 or 488 for 30-45 minutes. Incubation with DAPI additionally took place for 5 minutes for nuclear staining. The cells were visualized with the aid of an epifluorescence microscope (Axiovert 25).
1×10^4 Hek293 RhoA/NgR/p75 cells were transferred into MTP Biocoat microtiter plates with 96 wells two days before the actual start of the test. […] The cells were stimulated with the NgR ligand AP-Nogo-66 (9.6 μg/ml) in culture medium comprising 5% FCS. An unstimulated control mixture (without AP-Nogo66) was prepared for each series of tests. After a stimulation period of 5 to 10 minutes, the activation was stopped with cold PBS. […] were recorded with a cooled CCD camera from Zeiss, and the percentage content of contracted cells, based on the total cell count, was found.

[5] = biotinylated control peptides 0-300 nM

GKPRAPKCLKPEQ [ScraNtermR13]
affinity to sRAGE compared with NtermR13 [1, 5]: same or slightly higher affinity | maximum signal intensity in the test [1, 5]: highest maximum signal intensity

APLACPRELIKGKWEVKPKRNPKNQLTIGQL [ScraNtermR31]
effect on short-term and long-term potentiation ([2]; 500 nM): no effect

LPRHRALRTAPIQPRVWEPVPLEEVQLVVE [peptide 7]
inhibitory activity, peptide 7 compared with peptide 6 [3]: more pronounced | inhibition of Aβ oligomer binding to sRAGE [3]: Inhibition

QNITARIGEPLVLKCKGAPKKPPQRLEWKLN [NtermR31]
input/output ratio ([2]; 500 nM): unaffected | effect on short-term and long-term potentiation ([2]; 500 nM): distinctly suppresses | effect on basal synaptic transmission ([2]; application for 90 minutes): no effect | percentage content of contracted HEK cells [4]: concentration-dependent reduction

TLQSELMVTPARGGDPRPTFSCSFSPGLPR [peptide 6]
inhibition of Aβ oligomer binding to sRAGE [3]: Inhibition

F S R I R A T H W R V D G [AlterCharge1]
binding to the receptor (AlphaScreen) [1]: binding

R L K R G H A [Plus7]
maximum signal intensity in the test [1, 5]: highest maximum signal intensity

E T E D S D T [Minus7]
binding to the receptor (AlphaScreen) [1]: no bonding

F P V I P A L F W I V L M [Unpol13]
binding to the receptor (AlphaScreen) [1]: no bonding
